Here are results for four compounds from ChEMBL document CHEMBL1151200, “Comparison of fascaplysin and related alkaloids: a study of structures, cytotoxicities, and sources” (J Nat Prod, 2004).

The IC50 is the point on the concentration scale where inhibition reaches its midpoint. A higher IC50 goes with lower potency.

Series [1] deals with L1210. In words: Cytotoxicity against mouse L1210 cells at 84 ug/disk by disk diffusion soft agar colony formation assay. The format is functional. For orientation: A growth-free zone around the sample is the usual read-out of agar diffusion tests.
The test system of series [2] is MC-38. The series can be described thus: Cytotoxicity against mouse C38 cells at 84 ug/disk by disk diffusion soft agar colony formation assay. It counts as functional.
The nature of series [3]: Cytotoxicity against mouse CFU-GM cells at 84 ug/disk by disk diffusion soft agar colony formation assay. The format is cell-based.
Series [4] is described as follows: Cytotoxicity against human H116 cells at 84 ug/disk by disk diffusion soft agar colony formation assay. The format is functional.
Series [5] in a line: Cytotoxicity against human H125 cells at 84 ug/disk by disk diffusion soft agar colony formation assay. It counts as functional.
Series [6] has as its system CCRF-CEM. The series can be described thus: Cytotoxicity against human CEM cells at 84 ug/disk by disk diffusion soft agar colony formation assay. It counts as functional.
The test system of the next series is A549. In words: Antitumor activity against human A549/ATCC cells. The format is functional, cell-based.
For another series, the system named is EKVX. The series can be described thus: Antitumor activity against human EKVX cells. It counts as functional, cell-based.
For the next series, the system named is HOP-62. In words: Antitumor activity against human HOP62 cells. It counts as functional, cell-based.
For another series, the system named is HOP-92. In words: Antitumor activity against human HOP92 cells. The format is functional, cell-based.
The subject of another series is NCI-H226. In words: Antitumor activity against human NCI-H226 cells. The format is functional, cell-based.
For another series, the system named is NCI-H23. In words: Antitumor activity against human NCI-H23 cells. It counts as functional, cell-based.
For the next series, the system named is NCI-H322M. In words: Antitumor activity against human NCI-H322M cells. It counts as functional, cell-based.
A further series has as its system NCI-H460. The series can be described thus: Antitumor activity against human NCI-H460 cells. It counts as functional, cell-based.
The next series deals with NCI-H522. In words: Antitumor activity against human NCI-H522 cells. The format is functional, cell-based.
The test system of another series is COLO 205. The series can be described thus: Antitumor activity against human COLO205 cells. It counts as functional, cell-based.
Another series concerns HCC 2998. In words: Antitumor activity against human HCC2998 cells. The format is functional, cell-based.
The next series concerns HCT-116. The series can be described thus: Antitumor activity against human HCT116 cells. It counts as functional, cell-based.
The subject of the next series is HCT-15. The series can be described thus: Antitumor activity against human HCT15 cells. The format is functional, cell-based.
For a further series, the system named is HT-29. The series can be described thus: Antitumor activity against human HT-29 cells. The format is functional, cell-based.
The subject of another series is KM12. The series can be described thus: Antitumor activity against human KM12 cells. It counts as functional, cell-based.
A further series relates to SW-620. The series can be described thus: Antitumor activity against human SW620 cells. It counts as functional, cell-based.
For a further series, the system named is SF-268. The series can be described thus: Antitumor activity against human SF268 cells. The format is functional, cell-based.
The test system of another series is SF-295. In words: Antitumor activity against human SF295 cells. The format is functional, cell-based.
The test system of a further series is SF-539. In words: Antitumor activity against human SF539 cells. It counts as functional, cell-based.
The subject of the next series is SNB-19. In words: Antitumor activity against human SNB19 cells. It counts as functional, cell-based.
For another series, the system named is SNB-75. In words: Antitumor activity against human SNB75 cells. It counts as functional, cell-based.
Another series concerns U-251. The series can be described thus: Antitumor activity against human U251 cells. The format is functional, cell-based.
A further series relates to LOX IMVI. The series can be described thus: Antitumor activity against human LOXIMVI cells. The format is functional, cell-based.
Another series deals with Malme-3M. In words: Antitumor activity against human MALME-3M cells. It counts as functional, cell-based.
Another series deals with M14. In words: Antitumor activity against human M14 cells. The format is functional, cell-based.
The next series relates to SK-MEL-28. In words: Antitumor activity against human SK-MEL-28 cells. It counts as functional, cell-based.
A further series has as its system SK-MEL-5. The series can be described thus: Antitumor activity against human SK-MEL-5 cells. It counts as functional, cell-based.
The next series deals with UACC-257. The series can be described thus: Antitumor activity against human UACC257 cells. The format is functional, cell-based.
The next series deals with UACC-62. The series can be described thus: Antitumor activity against human UACC62 cells. It counts as functional, cell-based.
In a further series the test system is IGROV-1. In words: Antitumor activity against human IGROV1 cells. It counts as functional, cell-based.
Another series relates to OVCAR-3. The series can be described thus: Antitumor activity against human OVCAR-3 cells. It counts as functional, cell-based.
A further series concerns OVCAR-4. The series can be described thus: Antitumor activity against human OVCAR4 cells. It counts as functional, cell-based.
Another series concerns OVCAR-5. In words: Antitumor activity against human OVCAR5 cells. It counts as functional, cell-based.
The next series has as its system OVCAR-8. The series can be described thus: Antitumor activity against human OVCAR8 cells. The format is functional, cell-based.
For the next series, the system named is SK-OV-3. In words: Antitumor activity against human SKOV3 cells. The format is functional, cell-based.
Series [7] in a line: Antitumor activity against human 786-O cells. It counts as functional, cell-based. Particulars: 786-0.
In the next series the test system is ACHN. The series can be described thus: Antitumor activity against human ACHN cells. It counts as functional, cell-based.
The next series deals with CAKI-1. The series can be described thus: Antitumor activity against human Caki1 cells. It counts as functional, cell-based.
Another series concerns RXF 393. The series can be described thus: Antitumor activity against human RXF393 cells. It counts as functional, cell-based.
For a further series, the system named is SN12C. The series can be described thus: Antitumor activity against human SN12C cells. The format is functional, cell-based.
Another series concerns TK-10. In words: Antitumor activity against human TK10 cells. The format is functional, cell-based.
The test system of another series is UO-31. The series can be described thus: Antitumor activity against human UO31 cells. The format is functional, cell-based.
A further series relates to PC-3. In words: Antitumor activity against human PC3 cells. It counts as functional, cell-based.
In another series the test system is DU-145. The series can be described thus: Antitumor activity against human DU145 cells. The format is functional, cell-based.
In series [8] the test system is MCF7. The series can be described thus: Antitumor activity against human MCF7 cells. The format is functional, cell-based.
In series [9] the test system is MCF7. The series can be described thus: Antitumor activity against […] human MCF7 cells. It counts as functional, cell-based.
The test system of the next series is MDA-MB-231. In words: Antitumor activity against human MDA-MB-231 cells. It counts as functional, cell-based.
Series [10] is described as follows: Antitumor activity against human Hs 578T cells. It counts as functional, cell-based.
For a further series, the system named is MDA-MB-435. In words: Antitumor activity against human MDA-MB-435 cells. The format is functional, cell-based.
For the next series, the system named is MDA-N. In words: Antitumor activity against human MDA-N cells. The format is functional, cell-based.
Another series relates to BT-549. In words: Antitumor activity against human BT549 cells. The format is functional, cell-based.
The next series relates to T47D. In words: Antitumor activity against human T47D cells. The format is functional, cell-based.
Series [11] has as its system CCRF-CEM. In words: Antitumor activity against human CCRF-CEM cells. The format is functional, cell-based.
A further series concerns HL-60(TB). In words: Antitumor activity against human HL-60(TB) cells. The format is functional, cell-based.
A further series relates to K562. In words: Antitumor activity against human K562 cells. The format is functional, cell-based.
The next series relates to MOLT-4. The series can be described thus: Antitumor activity against human MOLT4 cells. It counts as functional, cell-based.
In a further series the test system is RPMI-8226. In words: Antitumor activity against human RPMI8226 cells. The format is functional, cell-based.
The subject of a further series is SR. In words: Antitumor activity against human SR cells. It counts as functional, cell-based.
For series [12], the system named is L1210. The series can be described thus: Cytotoxicity against mouse L1210 cells at 64 ug/disk by disk diffusion soft agar colony formation assay. It counts as functional.
The test system of series [13] is MC-38. In words: Cytotoxicity against mouse C38 cells at 64 ug/disk by disk diffusion soft agar colony formation assay. It counts as functional.
A short description of series [14]: Cytotoxicity against human H116 cells at 64 ug/disk by disk diffusion soft agar colony formation assay. The format is functional.
The nature of series [15]: Cytotoxicity against human H125 cells at 64 ug/disk by disk diffusion soft agar colony formation assay. It counts as functional.
Series [16] relates to CCRF-CEM. The series can be described thus: Cytotoxicity against human CEM cells at 64 ug/disk by disk diffusion soft agar colony formation assay. The format is functional.

With `COC(=O)c1ccc(Br)cc1-[n+]1ccc2c(c1)[nH]c1cc(Br)ccc12.[Cl-]`, the Activity with L1210 [1] is 450 Zone units; with MC-38 [2] it was 350 Zone units; in series [3] it was 400 Zone units; in series [4] it was 300 Zone units; in [5], 500 Zone units; in the series on CCRF-CEM [6] it was 300 Zone units.

Take `CC1=C(CC/C(C)=C/CC/C(C)=C/CCC(CC(=O)O)C(=O)[O-])C(C)(C)CCC1.O=C1c2ccccc2-[n+]2ccc3c([nH]c4ccccc43)c21` (centres undefined) [FASCAPLYSIN A]: the IC50 in the series with A549 worked out at 7.6 µM; with EKVX, 5.2 µM; in the series on HOP-62, 5.1 µM; in the series with HOP-92 it was 1 µM; with NCI-H226, 8.3 µM; in the series with NCI-H23, 5.1 µM. The IC50 in the series on NCI-H322M was 4.3 µM; in the series on NCI-H460, 6.4 µM; in the series on NCI-H522, 6.3 µM; with COLO 205, 0.83 µM; in the series with HCC 2998, 3.8 µM; with HCT-116, 1.6 µM. Further, the IC50 worked out at 5.8 µM with HCT-15; 1.4 µM in the series with HT-29; 7.3 µM in the series on KM12; 3.9 µM with SW-620; 5.7 µM in the series with SF-268; 5.2 µM in the series with SF-295. For the same compound, the IC50 in the series with SF-539 was found to be 2.2 µM; in the series with SNB-19, 5.4 µM; in the series on SNB-75 it was 5.2 µM; with U-251, 4.1 µM; with LOX IMVI, 6.3 µM; in the series with Malme-3M it was 0.54 µM. The IC50 in the series with M14 came to 4.2 µM; in the series with SK-MEL-28, 3.9 µM; in the series on SK-MEL-5, 0.53 µM; in the series on UACC-257, 3.8 µM; in the series on UACC-62, 3.2 µM; in the series on IGROV-1 it was 1.7 µM. Also, the IC50 in the series on OVCAR-3 is 3.1 µM; in the series on OVCAR-4 it was 4.5 µM; in the series with OVCAR-5, 5.8 µM; in the series with OVCAR-8, 5.3 µM; in the series with SK-OV-3, 7.7 µM; in series [7], 5.1 µM. The IC50 was 5.5 µM in the series with ACHN; 7.3 µM in the series with CAKI-1; 3.5 µM in the series on RXF 393; 3.2 µM in the series on SN12C; > 10 µM in the series with TK-10; 5.6 µM with UO-31. Further, the IC50 in the series on PC-3 was 5.4 µM; in the series with DU-145 it was 5.6 µM; with MCF7 [8] it was 5 µM; in the series on MCF7 [9], > 10 µM; in the series with MDA-MB-231, 6.8 µM; in series [10], > 10 µM. Moreover, the IC50 in the series on MDA-MB-435 is 0.57 µM; in the series with MDA-N it was 0.58 µM; in the series with BT-549 it was 5.1 µM; in the series with T47D, 6.6 µM; with CCRF-CEM [11], > 10 µM; with HL-60(TB) it was > 10 µM. Besides, the IC50 in the series with K562, in the series with MOLT-4, in the series with RPMI-8226 and in the series on SR was > 10 µM each time.

`O=C(O)c1ccccc1-[n+]1ccc2c(c1)[nH]c1ccccc12.[Cl-]` [RETICULATATE]: the Activity in the series with L1210 [12] is on record as 650 Zone units; in the series with MC-38 [13] it was 700 Zone units; in series [14], 650 Zone units; in series [15], 500 Zone units; in the series on CCRF-CEM [16], 350 Zone units.

As to `Oc1ccccc1-[n+]1ccc2c(c1)[nH]c1ccccc12.[Cl-]` [RETICULATOL], the Activity in the series on L1210 [12] is recorded as 200 Zone units; in the series on MC-38 [13], 200 Zone units; in [14], 100 Zone units; in [15], 400 Zone units; in the series with CCRF-CEM [16], >1000 Zone units.
